These are literature values, as cited in patent publication US11766428B2 (TAVANTA THERAPEUTICS HUNGARY INCORPORATED, priority 2018, dated 2023).

Molecules are shown by their SMILES.

Assay in data set [1]: not given
The source holds these as a separate data set.

As for `CCOC(=O)C1=C(COCCN)NC(C)=C(C(=O)OC)C1c1ccccc1Cl` (stereo not shown) [amlodipine], the “circulating drug bound to plasma proteins” value (ex vivo, hypertensive patients) was “approximately 93%”. For the same compound, for the setting “human, in vivo”, the “influence of renal impairment on pharmacokinetics” value is reported as “not significantly influenced”, the “parent compound excreted in the urine” value is given as 10% and the therapeutic plasma level was 3 to 10 ng/mL. Also, the “effect of food on bioavailability” value (oral) was “not altered by the presence of food”.
`CCOC(=O)C1=C(COCCN)NC(C)=C(C(=O)OC)C1c1ccccc1Cl` (racemic) [Amlodipine besylate, 3-ethyl-5-methyl (±)-2-[(2-aminoethoxy)methyl]-4-(2-chlorophenyl)-1,4-dihydro-6-methyl-3,5-pyridinedicarboxylate, monobenzenesulphonate]: in data set [1], the solubility in ethanol entry is on record as “sparingly soluble” and the solubility in water entry was “slightly soluble”.
